How the values were obtained:
[1] = system: neutrophil migration (chemotaxis) towards IL-8; conditions: in vitro, GXM added directly to the leukocytes; cited from earlier work
[2] = system: healthy rabbits; test: Animal toxicity of intravenous GXM in healthy rabbits; format: in vivo; conditions: intravenous administration, doses ranging from 0.5 to 50 mg
Text: In experiments, it was investigated whether GXM is toxic in healthy animals.

[3] = purified form; cited from earlier work
[4] = system: neutrophil L-selectin; conditions: cited from earlier work
[5] = system: neutrophils; conditions: cited from earlier work
[6] = target: CD18 (β subunit of LFA-1) (Homo sapiens, UniProt P05107); conditions: cited from earlier work
CD18 (β subunit of LFA-1), sequence (P05107 23-769): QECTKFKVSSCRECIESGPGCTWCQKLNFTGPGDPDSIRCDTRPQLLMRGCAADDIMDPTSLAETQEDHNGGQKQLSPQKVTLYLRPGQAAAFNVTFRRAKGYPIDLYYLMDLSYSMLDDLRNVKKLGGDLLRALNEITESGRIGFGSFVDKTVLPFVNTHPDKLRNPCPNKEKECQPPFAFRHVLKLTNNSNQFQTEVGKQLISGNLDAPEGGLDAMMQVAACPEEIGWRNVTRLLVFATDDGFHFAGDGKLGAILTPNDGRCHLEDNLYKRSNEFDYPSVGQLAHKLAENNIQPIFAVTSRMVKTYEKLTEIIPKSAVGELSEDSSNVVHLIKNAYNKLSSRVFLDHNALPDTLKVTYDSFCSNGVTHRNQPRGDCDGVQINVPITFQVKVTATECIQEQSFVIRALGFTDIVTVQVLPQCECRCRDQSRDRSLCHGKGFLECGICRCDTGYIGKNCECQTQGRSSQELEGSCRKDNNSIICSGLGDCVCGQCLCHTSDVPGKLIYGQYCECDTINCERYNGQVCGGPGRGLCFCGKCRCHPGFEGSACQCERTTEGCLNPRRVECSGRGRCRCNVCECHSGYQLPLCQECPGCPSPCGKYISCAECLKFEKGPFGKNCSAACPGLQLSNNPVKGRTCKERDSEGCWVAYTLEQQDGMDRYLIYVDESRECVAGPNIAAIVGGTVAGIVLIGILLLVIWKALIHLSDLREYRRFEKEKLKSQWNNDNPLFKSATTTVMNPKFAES

[7] = system: pneumococcal meningitis; test: pneumococcal meningitis model in rabbits, intravenous GXM; format: in vivo
[8] = pneumococcal meningitis rabbit model, i.v. administration
[9] = rabbits, intravenous administration, in comparison to control rabbits

For glucuronoxylomannan [GXM], the “interference with neutrophil migration (chemotaxis) towards IL-8” value [1] is listed as “interferes with neutrophil migration (chemotaxis) towards IL-8”, the “tolerability in healthy rabbits” value [2] is listed as “tolerated” and the immunogenicity [3] is listed as “poorly immunogenic”. For the same substance, the “shedding of neutrophil L-selectin” value [4] was “can induce shedding of neutrophil L-selectin”, the attraction of neutrophils [5] was “attract neutrophils itself” and the “binding to CD18” value [6] was “can bind to CD18”. For the same substance, the “toxicity and tolerability in the pneumococcal meningitis rabbit model” value ([7]; i.v. administration) was “non-toxic and well tolerated”, the “GXM in CSF” value [7, 8] was “detectable” and the brain toxicity [7, 8] was “No demonstrable brain toxicity”. The “TNF-α levels in the CSF” value [7, 9] was “reduces TNF-α levels in the CSF”, the “entry of leukocytes (PMN) into the CSF and brain” value [7, 9] was “delays entry of leukocytes (PMN) into the CSF and brain” and the “protection of the brain against damage” value [7, 9] was “protects the brains of these rabbits against damage”.
